These results are taken from PubChem BioAssay (NCI).

Among the test systems are SW-620 colon; LOX IMVI melanoma; MCF7 breast; IGROV1 ovarian; 786-0 renal; HCT-116 colon; SF-268 CNS; COLO 205 colon.
Assay in all cases: NCI-60 cell line screen, 48 h

Each structure is given as a SMILES string.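 Values below derive from 48-hour exposures of cells grown in 96-well plates, with endpoints linearly interpolated between the two concentrations bracketing the appropriate inhibition level. GI50 marks 50% less growth. TGI: total growth inhibition.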

Consider `Nc1nc2c(=O)c3ccccc3sc2s1`, for which the TGI in the assay on SW-620 colon, with LOX IMVI melanoma, with MCF7 breast, with IGROV1 ovarian, in the assay with 786-0 renal and in the assay on HCT-116 colon was greater than 100 µM throughout. In addition, the TGI in the assay on SF-268 CNS and in the assay on COLO 205 colon was greater than 100 µM in each case.
On to `Cc1ccc(C)n1-c1ccccc1C1SCCCS1`, for which the TGI with SW-620 colon, with LOX IMVI melanoma, in the assay on MCF7 breast, in the assay with IGROV1 ovarian, in the assay on 786-0 renal and in the assay with HCT-116 colon was greater than 100 µM each time. Also, the TGI with SF-268 CNS and in the assay with COLO 205 colon was greater than 100 µM throughout.
For the compound `O=C(O)[C@H]1[C@@H](C2CCCCC2)O[C@@H](C2CCCCC2)O[C@H]1C(F)(F)F`, the TGI in the assay on SW-620 colon is 52.8 µM; in the assay on LOX IMVI melanoma, 36.5 µM; with IGROV1 ovarian, 35.9 µM; in the assay on 786-0 renal, 33.5 µM; in the assay on HCT-116 colon, greater than 100 µM; with SF-268 CNS it was 44.2 µM. This compound yielded a TGI with COLO 205 colon of 77.9 µM.
Turning to `CCCC(=O)O`, the TGI in the assay on SW-620 colon was greater than 18700 µM; in the assay with LOX IMVI melanoma, 8470 µM; in the assay on IGROV1 ovarian, greater than 18700 µM; in the assay with 786-0 renal it was greater than 18700 µM; in the assay with HCT-116 colon, greater than 18700 µM; in the assay with SF-268 CNS, greater than 18700 µM. In addition, the TGI with COLO 205 colon stood at 9160 µM. The GI50 in the assay with COLO 205 colon was 2550 µM.
In the case of `O=C1N[C@H]2c3c(Cl)sc(Cl)c3/C(=N/O)[C@H]2O1`, the TGI with SW-620 colon, with MCF7 breast, in the assay on IGROV1 ovarian, in the assay with 786-0 renal, with HCT-116 colon and in the assay on SF-268 CNS was greater than 100 µM in each case. The same compound gave a TGI in the assay on COLO 205 colon greater than 100 µM.
For `O=C(CP(c1ccccc1)c1ccccc1)c1cccc(C(=O)CP(c2ccccc2)c2ccccc2)c1`, the TGI with SW-620 colon, in the assay on MCF7 breast, with IGROV1 ovarian, with 786-0 renal, with HCT-116 colon and with SF-268 CNS was greater than 100 µM throughout. In the assay with COLO 205 colon, this compound displayed a TGI greater than 100 µM.
`C/C=C/[C@@]1(OC(=O)c2ccccc2)C[C@@H]2CCCC[C@@H]21`: the TGI was determined as 48.3 µM in the assay on SW-620 colon; 44.7 µM with LOX IMVI melanoma; 33.3 µM with MCF7 breast; 32.1 µM in the assay with IGROV1 ovarian; 31.8 µM in the assay on 786-0 renal; 29.4 µM in the assay on HCT-116 colon. The same compound displayed a TGI in the assay on SF-268 CNS of 32.4 µM.
For the compound `COc1ccc2oc(=N)c(C(=O)Nc3cccc4ccccc34)cc2c1`, the TGI in the assay with SW-620 colon was greater than 100 µM; in the assay with MCF7 breast, 63.9 µM; with 786-0 renal, 28 µM; in the assay on HCT-116 colon, greater than 100 µM; in the assay on SF-268 CNS, greater than 100 µM; in the assay with COLO 205 colon, greater than 100 µM.
For the compound `COC(=O)N1CC2(CO)C3CC=C(C(=O)Nc4ccccc4Br)C2C1C3Br` (configuration not stated), the TGI with SW-620 colon, in the assay on LOX IMVI melanoma, with MCF7 breast, in the assay with IGROV1 ovarian, with 786-0 renal and with SF-268 CNS was greater than 50 µM each time. For the same compound, the TGI in the assay on COLO 205 colon was greater than 50 µM.
`CC1=NN(c2nc(N)nc(-c3ccccc3S(N)(=O)=O)n2)C(C)(C)C1`: the TGI with SW-620 colon, with LOX IMVI melanoma, with MCF7 breast, in the assay on IGROV1 ovarian, in the assay on 786-0 renal and in the assay with HCT-116 colon was greater than 100 µM throughout. Further, the TGI with SF-268 CNS was greater than 100 µM.
Regarding `O=C(O)c1ccccc1.[Ag]`, the TGI in the assay on LOX IMVI melanoma is greater than 66.6 µM; in the assay on MCF7 breast it was 36.5 µM; in the assay on IGROV1 ovarian, 30.6 µM; with 786-0 renal it was 32.7 µM; with HCT-116 colon, 46.3 µM; with SF-268 CNS, 50.1 µM. This compound showed a TGI in the assay with COLO 205 colon of 4.12 µM.
In the case of `CCc1nn(CN2CCN(C)CC2)c(=S)n1/N=C\c1ccc(-c2ccc([N+](=O)[O-])cc2)o1`, the TGI in the assay with LOX IMVI melanoma, with MCF7 breast, in the assay with IGROV1 ovarian, with 786-0 renal, with HCT-116 colon and in the assay with SF-268 CNS was greater than 100 µM in each case.
For the compound `COc1cc(/C=C/C(=O)OCC23CC[C@@]4(C(=O)O)CCC(C)[C@H](C)C4C2=CCC2[C@@]4(C)CC[C@H](O)C(C)(C)C4CC[C@]23C)ccc1O` (some centres not stated), the TGI in the assay with SW-620 colon is greater than 100 µM; in the assay on LOX IMVI melanoma, 34.2 µM; in the assay on MCF7 breast it was 48.1 µM; with IGROV1 ovarian it was 57.2 µM; with 786-0 renal it was 31.7 µM; with HCT-116 colon, 46.4 µM. Besides, in the assay on SF-268 CNS, the TGI was 33.3 µM.
In the case of `CN(C)c1nc2sc3c(c2c(=O)o1)CCCC3`, the TGI in the assay with SW-620 colon, in the assay with LOX IMVI melanoma, in the assay with MCF7 breast, in the assay with IGROV1 ovarian, with 786-0 renal and in the assay on HCT-116 colon was greater than 100 µM in each case. Also, the TGI in the assay with COLO 205 colon is 53.1 µM.
Consider `O=C(CSCC(=O)N/N=C/c1cc(I)cc(I)c1O)N/N=C/c1cc(I)cc(I)c1O`, for which the TGI is greater than 100 µM with SW-620 colon; 70.7 µM in the assay on MCF7 breast; 25.3 µM in the assay with IGROV1 ovarian; 22.2 µM in the assay on 786-0 renal; 33.9 µM in the assay with HCT-116 colon; 22.6 µM in the assay with SF-268 CNS. Moreover, the TGI in the assay on COLO 205 colon turned out to be 63.8 µM.
For the compound `c1csc(-c2ccc(-c3ccc(-c4ccc(-c5cccs5)s4)s3)s2)c1`, the TGI in the assay on SW-620 colon, in the assay on MCF7 breast, in the assay with IGROV1 ovarian, in the assay with 786-0 renal, in the assay with HCT-116 colon and with SF-268 CNS was greater than 100 µM in each case. For the same compound, the TGI with COLO 205 colon is greater than 100 µM.
`O=C1c2ccccc2C(=O)N1n1c(Cc2ccccc2)n[nH]c1=O`: the TGI with SW-620 colon, with LOX IMVI melanoma, with MCF7 breast, in the assay with IGROV1 ovarian, with 786-0 renal and in the assay with HCT-116 colon was greater than 100 µM each time. This compound came in with a TGI in the assay on COLO 205 colon greater than 100 µM.
With `Nc1nc(N)c2ncn(CC3CCC(CO)C3)c2n1` (configuration not stated), the TGI in the assay with SW-620 colon, in the assay on LOX IMVI melanoma, with MCF7 breast, in the assay with 786-0 renal, with HCT-116 colon and in the assay on SF-268 CNS was greater than 100 µM each time. Further, the TGI in the assay on COLO 205 colon is greater than 100 µM.
